Measurements published in PubChem BioAssay AID651975 (The Scripps Research Institute Molecular Screening Center, 2013).
The source made the active and inactive calls. No rule for the calls is given here.

Each molecule was assayed on StAR promoter luciferase reporter cells, luminescence inhibition (assay: nonselective StAR promoter luciferase inhibitors – cell-based, luminescence, dose response, counter-screen for LRH-1 inverse agonist project, late-stage follow-up (AID 651975)).
For `CCOc1ccc(NC(=O)COC(=O)CC2CCCCC2)cc1`, the IC50 was > 35.9 µM (inactive). In the case of `COc1ccccc1Oc1nnnn1-c1ccc(C(N)=O)cc1`, the IC50 is reported as > 35.9 µM (inactive). In the case of `CCOc1ccc(NC(=O)COC(=O)c2ccc3c(c2)OCCO3)cc1`, the IC50 is reported as > 35.9 µM (inactive). For `COc1ccc(CCNC(=O)CSc2nc3[nH]c(=O)cc(O)c3s2)cc1`, the IC50 was > 35.9 µM (inactive). With `O=C(COC(=O)c1ccc(Br)cc1)Nc1ccccc1Br` the IC50 was > 35.9 µM (inactive). In the case of `CC(C)CC1(C)NC(=O)N(CC(=O)Nc2ccc3c(c2)OCCO3)C1=O` (stereo not given), the IC50 is reported as > 35.9 µM (inactive). With `COc1ccc(CCNC(=O)COC(=O)C23CC4CC(CC(C4)C2)C3)cc1` the IC50 was > 35.9 µM (inactive). `O=C(Nc1ccc(S(=O)(=O)N2CCOCC2)cc1)c1cccc([N+](=O)[O-])c1` was tested, and the IC50 was > 35.9 µM (inactive). `Cc1cc(C)c2nc(NC(=O)c3ccc([N+](=O)[O-])o3)sc2c1` was tested, and the IC50 was > 35.9 µM (inactive). With `COc1ccc(NC(=O)CSc2nnc3ccc(-c4cccnc4)nn23)cc1OC` the IC50 was > 35.9 µM (inactive). With `Cc1cc(=O)oc2c(C)c(OCC(=O)NC3CC(C)(C)NC(C)(C)C3)ccc12` the IC50 was > 35.9 µM (inactive). In the case of `O=C(NCC1CCCO1)c1ccc(NC(=O)c2cccc([N+](=O)[O-])c2)cc1` (stereo not given), the IC50 is reported as > 35.9 µM (inactive). For `CC(=O)Nc1ccc(N=c2cc([N+](=O)[O-])cc(Cl)n2O)cc1`, the IC50 was > 35.9 µM (inactive). With `Cc1cc(Br)ccc1NC(=O)CN1C(=O)C2CC=CCC2C1=O` (stereo not given) the IC50 was 27.8 µM (inactive). `O=C1CCCN2N=C(SCC(=O)Nc3ccc(Br)cc3)SC2=N1` was tested, and the IC50 was > 35.9 µM (inactive). With `COc1ccc(NS(=O)(=O)c2ccc(OCC(=O)N3CCN(C)CC3)cc2)cc1Cl` the IC50 was > 35.9 µM (inactive). `COc1ccc(CCNC(=O)COC(=O)c2cccn2C)cc1` was tested, and the IC50 was > 35.9 µM (inactive). With `COC(=O)c1ccc(NC(=O)CSc2ccc(-c3ccccn3)nn2)cc1` the IC50 was > 35.9 µM (inactive). In the case of `O=C(COc1ccc2c3c(c(=O)oc2c1)CCCC3)NCc1ccccn1`, the IC50 is reported as > 35.9 µM (inactive). `Cc1sc(NC(=O)C(C)C)c(C(=O)Nc2ccccc2)c1C` was tested, and the IC50 was > 35.9 µM (inactive). `Cc1cc(Br)ccc1NC(=O)CN1C(=O)CCC1=O` was tested, and the IC50 was > 35.9 µM (inactive). In the case of `COc1ccc(CCNC(=O)COC(=O)Cc2ccccc2[N+](=O)[O-])cc1`, the IC50 is reported as > 35.9 µM (inactive). In the case of `Cc1cccc(NC(=O)COC(=O)CN2C(=O)c3ccccc3C2=O)c1C`, the IC50 is reported as > 35.9 µM (inactive). In the case of `O=c1[nH]c(Nc2ccc3c(c2)OCCO3)nnc1Cc1ccccc1`, the IC50 is reported as > 35.9 µM (inactive). With `COc1ccc(NC(=O)CSc2sc3c(O)cc(=O)[nH]c3c2C#N)c(OC)c1` the IC50 was > 35.9 µM (inactive). With `CCCN(CC(=O)Nc1ccc(C(C)=O)cc1)CC(=O)Nc1ccccc1C` the IC50 was > 35.9 µM (inactive). `COCCn1c(C)cc(/C=C(\C#N)C(=O)OCC(=O)Nc2ccc(S(N)(=O)=O)cc2)c1C` was tested, and the IC50 was > 35.9 µM (inactive). For `O=C(Nc1ccccc1)c1oc2ccccc2c1NC(=O)C1CC1`, the IC50 was > 35.9 µM (inactive). `CCCc1cc(=O)oc2c(C)c(OCC(=O)NCCCn3ccnc3)ccc12` was tested, and the IC50 was > 35.9 µM (inactive). `O=C(COc1ccc2c3c(c(=O)oc2c1)CCC3)NCc1ccncc1` was tested, and the IC50 was > 35.9 µM (inactive). `O=C(CSc1nnc(CNC(=O)c2c(F)cccc2F)o1)Nc1ccc2c(c1)OCCO2` was tested, and the IC50 was > 35.9 µM (inactive). `COC(=O)c1ccc(NC(=O)CSc2nn3c(=O)c(C)nnc3s2)cc1` was tested, and the IC50 was > 35.9 µM (inactive). `COC(=O)c1ccc(NC(=O)CN2CCN(c3ccc(Cl)cc3)CC2)cc1` was tested, and the IC50 was > 35.9 µM (inactive). With `Cc1cc(OCC(=O)Nc2nccs2)c2c(C)cc(=O)oc2c1` the IC50 was > 35.9 µM (inactive). For `CC(=O)Nc1ccc(NC(=O)CSc2ccc(-c3ccco3)nn2)cc1`, the IC50 was > 35.9 µM (inactive). `CCc1cc(=O)oc2c(C)c(OCC(=O)NCCN3CCOCC3)ccc12` was tested, and the IC50 was > 35.9 µM (inactive). `O=C(CSc1nnc(CNC(=O)c2ccccc2F)o1)Nc1ccc2c(c1)OCCO2` was tested, and the IC50 was > 35.9 µM (inactive). For `O=C(Nc1ccc(Br)cn1)c1ccc([N+](=O)[O-])o1`, the IC50 was > 35.9 µM (inactive). `CCOc1ccc(OCCN2C(=O)NC(Cc3c[nH]c4ccccc34)C2=O)cc1` (stereo not given) was tested, and the IC50 was > 35.9 µM (inactive). In the case of `CCOc1ccc(OCCC(=O)OCC(=O)Nc2ccc3c(c2)OCCO3)cc1`, the IC50 is reported as > 35.9 µM (inactive). With `CCOc1ccc(NC(=O)COC(=O)COc2cccc3c2OC(C)(C)C3)cc1` the IC50 was > 35.9 µM (inactive). With `COc1ccc(NC(=O)CS(=O)(=O)c2ccc(C)cc2)c(OC)c1` the IC50 was > 35.9 µM (inactive). In the case of `CC(=O)Nc1ncc(Cc2cc(Cl)ccc2Cl)s1`, the IC50 is reported as > 35.9 µM (inactive). With `COc1ccc(CCNC(=O)CSc2ccc(NC(C)=O)cc2)cc1OC` the IC50 was > 35.9 µM (inactive). With `COc1ccc(CCNC(=O)COC(=O)c2cc(Cl)nc(Cl)c2)cc1` the IC50 was > 35.9 µM (inactive). `CCc1c(C)nc(SCC(=O)Nc2ccc3c(c2)OCCO3)[nH]c1=O` was tested, and the IC50 was > 35.9 µM (inactive). In the case of `CCCc1nnc(SCC(=O)Nc2ccc(C(=O)OCC)cc2)o1`, the IC50 is reported as > 35.9 µM (inactive). In the case of `COC(=O)c1ccc(CNC(=O)COC(=O)c2cc(Cl)nc(Cl)c2)cc1`, the IC50 is reported as > 35.9 µM (inactive). `CC(=O)c1ccc(OC(C)C(=O)OCC(=O)NCCc2ccccc2)cc1` (stereo not given) was tested, and the IC50 was > 35.9 µM (inactive). In the case of `CCCc1cc(=O)oc2c(C)c(OCC(=O)NC3CC(C)(C)NC(C)(C)C3)ccc12`, the IC50 is reported as > 35.9 µM (inactive). For `COc1ccc(NC(=O)CSc2nc(N)c(-c3ccccc3)c(=O)[nH]2)cc1`, the IC50 was > 35.9 µM (inactive). `CCOc1ccc(NC(=O)CSc2nc3[nH]ncc3c(=O)[nH]2)cc1` was tested, and the IC50 was > 35.9 µM (inactive). In the case of `O=C(CN1C(=O)CCC1=O)Nc1ccc(Br)cc1`, the IC50 is reported as > 35.9 µM (inactive). `CCn1c(SCC(=O)Nc2ccc(Cl)cc2)nnc1C1CC1` was tested, and the IC50 was > 35.9 µM (inactive). `COC(=O)c1ccc(NC(=O)COc2cccc(-n3cnnn3)c2)cc1` was tested, and the IC50 was > 35.9 µM (inactive). In the case of `COc1ccc(NC(=O)COC(=O)c2cc(S(=O)(=O)N3CCCC3)ccc2O)cc1`, the IC50 is reported as > 35.9 µM (inactive). `CCCc1cc(=O)oc2c(C)c(OCC(=O)NCCN3CCOCC3)ccc12` was tested, and the IC50 was > 35.9 µM (inactive). In the case of `COc1ccc(NC(=O)CSc2ccc3c(c2)OCCO3)cc1`, the IC50 is reported as > 35.9 µM (inactive). With `CCOc1ccc(NC(=O)CSc2nnc(C(C)C)n2CC)cc1` the IC50 was > 35.9 µM (inactive). `O=C(OCC(=O)N1CCN(C(=O)COC(=O)c2ccc(O)cc2O)CC1)c1ccc(O)cc1O` was tested, and the IC50 was > 35.9 µM (inactive). In the case of `Cc1ccn2c(=O)nc(SCC(=O)Nc3ccc4c(c3)OCCO4)nc2c1`, the IC50 is reported as > 35.9 µM (inactive). In the case of `Cc1ccc(-c2csc(NC(=O)c3ccc([N+](=O)[O-])o3)n2)cc1`, the IC50 is reported as > 35.9 µM (inactive). `Cc1cc(Br)ccc1NC(=O)CSc1nnc(CN2CCOCC2)n1C` was tested, and the IC50 was > 35.9 µM (inactive). For `Cc1ccc2cccc(OCC(=O)NCCC3=CCCCC3)c2n1`, the IC50 was > 35.9 µM (inactive). `O=C(Nc1nc2c(Cl)cccc2s1)c1ccc([N+](=O)[O-])o1` was tested, and the IC50 was > 35.9 µM (inactive). In the case of `Cc1ccc(NC(=O)COC(=O)C(NS(=O)(=O)c2ccc(Cl)cc2)C(C)O)cc1C` (stereo not given), the IC50 is reported as > 35.9 µM (inactive). `O=C(COC(=O)CCN1C(=O)C2CC=CCC2C1=O)NCCc1ccc(F)cc1` (stereo not given) was tested, and the IC50 was > 35.9 µM (inactive). `COC(=O)c1ccc(NC(=O)CSc2nc3ncccc3[nH]2)cc1` was tested, and the IC50 was > 35.9 µM (inactive). With `Cc1cccc(NC(=O)COC(=O)Cc2cccs2)c1C` the IC50 was > 35.9 µM (inactive). For `Cc1ccc(NC(=O)COC(=O)C(NS(=O)(=O)c2ccc(Cl)cc2)C(C)O)c(Br)c1` (stereo not given), the IC50 was > 35.9 µM (inactive). With `COc1ccc(NC(=O)COC(=O)c2c(-c3ccccc3)noc2C)cc1` the IC50 was 33.9 µM (inactive). For `O=C(CSc1nc(=O)n2cc(Cl)ccc2n1)Nc1ccc2c(c1)OCCO2`, the IC50 was > 35.9 µM (inactive). In the case of `Cc1ccc(NC(=O)CSc2nc3[nH]c(=O)cc(O)c3s2)c(Br)c1`, the IC50 is reported as > 35.9 µM (inactive). For `O=C(COC(=O)c1ccc[n+]([O-])c1)Nc1ccc([N+](=O)[O-])cc1Cl`, the IC50 was > 35.9 µM (inactive). With `NC(=O)C1CCN(C(=O)COc2ccc3c4c(c(=O)oc3c2)CCCC4)CC1` the IC50 was > 35.9 µM (inactive). For `CCOc1ccc(NC(=O)CSc2nccn(-c3ccc4c(c3)OCCO4)c2=O)cc1`, the IC50 was > 35.9 µM (inactive). `Cc1nn(CC(=O)Nc2ccc3c(c2)OCCO3)c(C)c1[N+](=O)[O-]` was tested, and the IC50 was > 35.9 µM (inactive). `CC1SC(C)C(=O)N(CC(=O)Nc2ccc3c(c2)OCO3)C1=O` (stereo not given) was tested, and the IC50 was > 35.9 µM (inactive). `Cc1ccc(NC(=O)CSc2sc3c(O)cc(=O)[nH]c3c2C#N)c(F)c1` was tested, and the IC50 was > 35.9 µM (inactive). `CCCc1cc(=O)oc2cc(OCC(=O)NCc3ccccn3)ccc12` was tested, and the IC50 was > 35.9 µM (inactive). For `CCCc1cc(=O)oc2cc(OCC(=O)NCCc3ccc(S(N)(=O)=O)cc3)ccc12`, the IC50 was > 35.9 µM (inactive). For `CC(=O)c1ccc(NC(=O)C(C)O/N=C(\N)c2ccccc2)cc1` (stereo not given), the IC50 was > 35.9 µM (inactive). `N#CCSc1ccccc1NC(=O)CN1C(=O)C2CC=CCC2C1=O` (stereo not given) was tested, and the IC50 was > 35.9 µM (inactive). With `O=C(NCc1ccco1)c1nn(-c2ccccc2)c(=O)c2ccccc12` the IC50 was > 35.9 µM (inactive). For `COc1ccc(CCNC(=O)CSc2nn3c(=O)c(C)nnc3s2)cc1OC`, the IC50 was > 35.9 µM (inactive). In the case of `COC(=O)c1ccc(NC(=O)CSc2nncn2-c2cccnc2)cc1`, the IC50 is reported as > 35.9 µM (inactive). `CCOc1ccc(NC(=O)CN2CCN(CC(=O)Nc3ccc(OC)cc3)CC2)cc1` was tested, and the IC50 was > 35.9 µM (inactive). With `COc1ccc(-n2c(N)c(C(=O)NCc3cccnc3)sc2=S)cc1` the IC50 was > 35.9 µM (inactive). `CCCc1cc(=O)oc2cc(C)cc(OCC(=O)NC3CC3)c12` was tested, and the IC50 was > 35.9 µM (inactive). With `CCc1cc(=O)[nH]c(SCC(=O)Nc2ccc3c(c2)OCCO3)n1` the IC50 was > 35.9 µM (inactive). For `Cc1cc(C)c2sc(NC(=O)c3ccc([N+](=O)[O-])o3)nc2c1`, the IC50 was > 35.9 µM (inactive). With `Cc1ccc(NC(=O)COC(=O)c2cc(=O)c3ccccc3o2)c(Br)c1` the IC50 was > 35.9 µM (inactive). `CCOc1ccc(NC(=O)CSc2nncc(=O)n2N)cc1` was tested, and the IC50 was > 35.9 µM (inactive). With `O=C(COC(=O)c1ccc(=O)n(Cc2ccccc2)n1)Nc1ccc2c(c1)OCCO2` the IC50 was > 35.9 µM (inactive). In the case of `COc1ccc(NC(=O)CN2C(=O)NC3(CCCC3)C2=O)cc1`, the IC50 is reported as > 35.9 µM (inactive).
